Blank lines part the entries; values can stand above or below the molecule they belong to.
Experiments:
[1] = molecular target: T1, Ephrin type-B receptor 6 (Homo sapiens) (UniProt O15197); conditions: at 10 µM
T1 sequence (whole entry): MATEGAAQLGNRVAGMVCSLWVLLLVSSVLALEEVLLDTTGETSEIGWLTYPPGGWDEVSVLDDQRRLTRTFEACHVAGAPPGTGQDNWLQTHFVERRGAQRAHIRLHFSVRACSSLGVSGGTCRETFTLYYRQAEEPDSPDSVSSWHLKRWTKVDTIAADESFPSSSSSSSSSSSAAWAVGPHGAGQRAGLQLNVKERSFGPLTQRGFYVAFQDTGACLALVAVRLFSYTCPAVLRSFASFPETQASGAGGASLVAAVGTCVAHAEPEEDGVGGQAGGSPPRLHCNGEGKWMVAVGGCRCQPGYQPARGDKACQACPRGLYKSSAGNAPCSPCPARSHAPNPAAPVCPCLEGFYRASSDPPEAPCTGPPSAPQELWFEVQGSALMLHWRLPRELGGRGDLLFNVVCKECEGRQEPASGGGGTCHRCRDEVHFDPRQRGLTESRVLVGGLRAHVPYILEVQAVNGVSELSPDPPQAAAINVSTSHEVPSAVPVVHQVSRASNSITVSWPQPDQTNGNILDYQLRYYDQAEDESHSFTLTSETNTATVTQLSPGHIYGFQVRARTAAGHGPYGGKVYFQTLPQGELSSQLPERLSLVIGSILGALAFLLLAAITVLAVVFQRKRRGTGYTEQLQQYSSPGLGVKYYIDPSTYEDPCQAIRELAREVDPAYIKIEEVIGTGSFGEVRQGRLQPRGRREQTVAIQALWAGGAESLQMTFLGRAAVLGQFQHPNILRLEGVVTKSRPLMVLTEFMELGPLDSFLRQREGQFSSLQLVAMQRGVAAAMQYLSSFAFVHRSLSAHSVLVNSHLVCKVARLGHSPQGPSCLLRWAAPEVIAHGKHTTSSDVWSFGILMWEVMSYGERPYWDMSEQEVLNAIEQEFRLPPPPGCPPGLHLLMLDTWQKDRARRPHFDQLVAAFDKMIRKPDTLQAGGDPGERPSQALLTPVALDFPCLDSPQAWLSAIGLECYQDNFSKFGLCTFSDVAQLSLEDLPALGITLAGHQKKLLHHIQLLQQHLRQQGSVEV

[2] = molecular target: Sphingosine kinase 1 (Homo sapiens) (UniProt Q9NYA1); assay: Selectivity interaction (Kinase panel (Invitrogen)) EUB0000639a SPHK1; conditions: at 200 nM
Sequence of Sphingosine kinase 1 (Homo sapiens) (Q9NYA1 whole entry): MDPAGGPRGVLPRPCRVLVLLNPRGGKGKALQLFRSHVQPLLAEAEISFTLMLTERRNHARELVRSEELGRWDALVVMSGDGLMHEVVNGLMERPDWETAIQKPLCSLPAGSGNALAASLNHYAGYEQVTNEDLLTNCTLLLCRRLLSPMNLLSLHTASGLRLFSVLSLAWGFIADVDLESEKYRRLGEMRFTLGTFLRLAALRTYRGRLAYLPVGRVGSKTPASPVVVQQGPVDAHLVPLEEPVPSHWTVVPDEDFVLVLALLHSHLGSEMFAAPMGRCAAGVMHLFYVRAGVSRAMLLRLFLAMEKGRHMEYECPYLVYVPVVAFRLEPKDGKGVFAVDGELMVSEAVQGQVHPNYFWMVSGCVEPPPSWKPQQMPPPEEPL

[3] = molecular target: Serine/threonine-protein kinase PRP4 homolog (Homo sapiens) (UniProt Q13523); assay: Selectivity interaction (ActivX KiNativ screen (kinase selectivity in THP-1 cell lysates)) EUB0000639a PRPF4; assay type: subcellular; conditions: lysate, at 5 µM
Sequence of Serine/threonine-protein kinase PRP4 homolog (Homo sapiens) (Q13523 whole entry): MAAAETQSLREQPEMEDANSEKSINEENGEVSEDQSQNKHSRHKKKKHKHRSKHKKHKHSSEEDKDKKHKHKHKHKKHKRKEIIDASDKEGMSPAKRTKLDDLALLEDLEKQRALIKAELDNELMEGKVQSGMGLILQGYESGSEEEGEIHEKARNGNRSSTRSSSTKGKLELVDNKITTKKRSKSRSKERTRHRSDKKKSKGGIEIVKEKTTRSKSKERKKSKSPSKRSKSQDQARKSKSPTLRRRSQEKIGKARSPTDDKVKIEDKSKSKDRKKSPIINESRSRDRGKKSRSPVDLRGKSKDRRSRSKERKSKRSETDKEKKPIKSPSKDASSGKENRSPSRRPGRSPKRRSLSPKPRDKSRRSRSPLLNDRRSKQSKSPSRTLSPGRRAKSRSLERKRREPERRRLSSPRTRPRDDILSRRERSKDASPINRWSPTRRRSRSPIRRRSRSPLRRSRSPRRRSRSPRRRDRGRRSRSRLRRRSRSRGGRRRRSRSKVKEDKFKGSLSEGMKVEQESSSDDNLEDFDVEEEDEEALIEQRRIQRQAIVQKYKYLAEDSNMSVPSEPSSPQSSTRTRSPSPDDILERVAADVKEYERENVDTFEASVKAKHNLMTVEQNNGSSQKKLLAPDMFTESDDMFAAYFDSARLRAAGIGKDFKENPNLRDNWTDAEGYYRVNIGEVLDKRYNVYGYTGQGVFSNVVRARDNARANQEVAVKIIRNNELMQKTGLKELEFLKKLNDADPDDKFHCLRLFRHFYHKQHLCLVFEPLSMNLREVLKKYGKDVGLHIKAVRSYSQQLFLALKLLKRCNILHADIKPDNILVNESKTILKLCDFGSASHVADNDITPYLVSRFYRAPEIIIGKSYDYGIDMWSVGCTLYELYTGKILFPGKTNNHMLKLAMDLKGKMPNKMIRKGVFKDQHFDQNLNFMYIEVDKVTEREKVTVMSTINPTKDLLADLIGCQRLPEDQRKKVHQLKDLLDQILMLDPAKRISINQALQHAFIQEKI

[4] = molecular target: Mitogen-activated protein kinase 1 (Homo sapiens, UniProt P28482); assay: Selectivity interaction (KinomeScan (DiscoverX)) EUB0000695a MAPK1; conditions: at 100 nM
Sequence of Mitogen-activated protein kinase 1 (P28482 whole entry): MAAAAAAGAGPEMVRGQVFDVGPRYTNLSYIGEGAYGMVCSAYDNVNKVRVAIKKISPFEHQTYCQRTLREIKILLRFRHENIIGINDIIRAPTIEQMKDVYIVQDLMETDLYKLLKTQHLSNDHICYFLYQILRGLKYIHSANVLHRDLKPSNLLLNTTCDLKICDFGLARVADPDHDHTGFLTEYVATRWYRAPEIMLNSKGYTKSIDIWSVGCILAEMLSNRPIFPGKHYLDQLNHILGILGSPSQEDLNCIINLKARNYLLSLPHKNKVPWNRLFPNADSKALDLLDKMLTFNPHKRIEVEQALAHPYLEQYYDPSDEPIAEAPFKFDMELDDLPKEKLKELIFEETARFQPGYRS

[5] = molecular target: T2, cGMP-dependent protein kinase 2 (Homo sapiens) (UniProt Q13237); assay: Selectivity interaction (KinomeScan (DiscoverX)) EUB0000595a PRKG2; conditions: at 10 µM
T2 sequence (whole entry): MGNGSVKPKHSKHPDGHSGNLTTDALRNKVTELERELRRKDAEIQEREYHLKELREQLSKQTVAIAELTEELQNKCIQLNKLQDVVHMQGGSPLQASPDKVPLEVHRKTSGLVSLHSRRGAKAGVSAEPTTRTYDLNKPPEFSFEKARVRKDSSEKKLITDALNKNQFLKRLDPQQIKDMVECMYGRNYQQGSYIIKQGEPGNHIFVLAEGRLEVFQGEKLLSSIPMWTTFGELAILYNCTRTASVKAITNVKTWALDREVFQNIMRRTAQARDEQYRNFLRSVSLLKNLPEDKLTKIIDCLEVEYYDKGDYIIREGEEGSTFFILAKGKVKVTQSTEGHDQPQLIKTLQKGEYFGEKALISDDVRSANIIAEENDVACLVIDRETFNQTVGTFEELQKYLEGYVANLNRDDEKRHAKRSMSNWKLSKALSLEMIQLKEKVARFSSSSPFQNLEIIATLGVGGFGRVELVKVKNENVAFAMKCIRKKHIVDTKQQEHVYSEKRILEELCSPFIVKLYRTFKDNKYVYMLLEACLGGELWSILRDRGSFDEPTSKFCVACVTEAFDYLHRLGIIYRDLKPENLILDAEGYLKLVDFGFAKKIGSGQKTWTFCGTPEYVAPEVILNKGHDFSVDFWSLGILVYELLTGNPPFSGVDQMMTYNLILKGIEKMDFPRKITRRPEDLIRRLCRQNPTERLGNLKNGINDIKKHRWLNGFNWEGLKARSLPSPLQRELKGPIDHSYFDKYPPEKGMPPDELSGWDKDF

[6] = molecular target: Casein kinase I isoform gamma-2 (Homo sapiens) (UniProt P78368); assay: Selectivity interaction (KinomeScan (DiscoverX)) EUB0001079a CSNK1G2; conditions: at 1 µM
Sequence of Casein kinase I isoform gamma-2 (Homo sapiens) (P78368 whole entry, looked up, canonical isoform): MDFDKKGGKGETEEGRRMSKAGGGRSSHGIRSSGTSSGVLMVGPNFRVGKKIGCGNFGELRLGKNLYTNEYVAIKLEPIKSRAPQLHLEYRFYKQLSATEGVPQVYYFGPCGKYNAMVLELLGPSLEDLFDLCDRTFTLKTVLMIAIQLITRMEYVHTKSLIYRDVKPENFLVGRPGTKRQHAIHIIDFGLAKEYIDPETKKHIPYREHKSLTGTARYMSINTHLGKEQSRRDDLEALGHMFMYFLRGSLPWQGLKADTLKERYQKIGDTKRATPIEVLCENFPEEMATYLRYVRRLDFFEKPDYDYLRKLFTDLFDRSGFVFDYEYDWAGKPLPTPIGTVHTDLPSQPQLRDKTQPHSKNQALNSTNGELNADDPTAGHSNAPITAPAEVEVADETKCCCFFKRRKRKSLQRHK

[7] = molecular target: Serine/threonine-protein kinase 24 (Homo sapiens) (UniProt Q9Y6E0); assay: Selectivity interaction (Upstate Kinase Profiler service (Millipore)) EUB0000056c STK24; conditions: at 1 µM
Sequence of Serine/threonine-protein kinase 24 (Homo sapiens) (Q9Y6E0 whole entry, looked up): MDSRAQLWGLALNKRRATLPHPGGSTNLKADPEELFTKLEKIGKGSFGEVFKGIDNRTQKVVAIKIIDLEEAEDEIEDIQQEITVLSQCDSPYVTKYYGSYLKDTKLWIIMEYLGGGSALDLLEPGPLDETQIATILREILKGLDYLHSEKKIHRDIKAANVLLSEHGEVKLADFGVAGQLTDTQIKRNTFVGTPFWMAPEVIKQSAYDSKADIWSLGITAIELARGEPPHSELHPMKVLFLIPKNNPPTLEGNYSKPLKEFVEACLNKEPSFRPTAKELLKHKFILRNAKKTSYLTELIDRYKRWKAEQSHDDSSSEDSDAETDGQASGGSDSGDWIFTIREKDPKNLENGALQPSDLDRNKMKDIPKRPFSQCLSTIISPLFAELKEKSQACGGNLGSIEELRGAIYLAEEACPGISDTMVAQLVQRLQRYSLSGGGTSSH

[8] = molecular target: Ribosomal protein S6 kinase alpha-5 (Homo sapiens) (UniProt O75582); assay: Selectivity interaction (KinomeScan (DiscoverX)) EUB0000311b RPS6KA5; conditions: at 1 µM
Sequence of Ribosomal protein S6 kinase alpha-5 (Homo sapiens) (O75582 whole entry, looked up): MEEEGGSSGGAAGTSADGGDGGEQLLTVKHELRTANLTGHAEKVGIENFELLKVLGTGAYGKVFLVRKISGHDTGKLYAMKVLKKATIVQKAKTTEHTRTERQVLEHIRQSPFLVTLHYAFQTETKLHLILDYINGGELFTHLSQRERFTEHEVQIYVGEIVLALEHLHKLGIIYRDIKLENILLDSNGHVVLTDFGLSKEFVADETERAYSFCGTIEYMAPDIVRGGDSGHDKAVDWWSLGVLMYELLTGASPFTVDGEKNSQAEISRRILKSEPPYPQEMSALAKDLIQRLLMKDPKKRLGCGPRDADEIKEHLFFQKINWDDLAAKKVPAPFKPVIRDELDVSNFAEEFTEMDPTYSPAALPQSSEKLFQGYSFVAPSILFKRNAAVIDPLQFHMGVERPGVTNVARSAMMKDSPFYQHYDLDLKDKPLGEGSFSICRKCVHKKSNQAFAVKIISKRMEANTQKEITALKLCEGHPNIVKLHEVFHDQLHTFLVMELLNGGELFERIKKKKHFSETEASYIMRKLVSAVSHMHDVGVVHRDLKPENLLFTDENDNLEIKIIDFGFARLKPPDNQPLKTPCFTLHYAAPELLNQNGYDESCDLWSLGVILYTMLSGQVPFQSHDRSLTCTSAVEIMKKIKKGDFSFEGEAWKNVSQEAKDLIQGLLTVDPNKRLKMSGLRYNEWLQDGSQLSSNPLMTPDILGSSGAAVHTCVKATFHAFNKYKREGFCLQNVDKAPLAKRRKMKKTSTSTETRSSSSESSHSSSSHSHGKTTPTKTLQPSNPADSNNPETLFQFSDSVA

[9] = molecular target: Serine/threonine-protein kinase 33 (Homo sapiens) (UniProt Q9BYT3); assay: Selectivity interaction (KinomeScan (DiscoverX)) EUB0001619a STK33; conditions: at 1 µM
Sequence of Serine/threonine-protein kinase 33 (Homo sapiens) (Q9BYT3 whole entry, looked up): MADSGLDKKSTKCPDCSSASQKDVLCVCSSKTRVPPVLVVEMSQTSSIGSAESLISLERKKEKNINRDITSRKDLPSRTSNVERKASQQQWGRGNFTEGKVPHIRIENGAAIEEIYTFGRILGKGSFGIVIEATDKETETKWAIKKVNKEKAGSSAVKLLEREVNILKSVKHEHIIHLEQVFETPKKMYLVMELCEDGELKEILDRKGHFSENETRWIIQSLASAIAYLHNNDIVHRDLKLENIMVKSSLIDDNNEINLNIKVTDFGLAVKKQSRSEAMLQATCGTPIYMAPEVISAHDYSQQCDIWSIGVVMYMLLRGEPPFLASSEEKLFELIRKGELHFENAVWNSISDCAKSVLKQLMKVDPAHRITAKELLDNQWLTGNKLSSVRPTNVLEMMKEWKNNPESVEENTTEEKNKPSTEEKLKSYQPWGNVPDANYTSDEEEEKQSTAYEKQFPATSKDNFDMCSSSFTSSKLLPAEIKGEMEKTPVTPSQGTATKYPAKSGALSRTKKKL

SMILES: Cc1cc([C@@H](C)Nc2ccccc2C(=O)O)c2nc(N3CCOCC3)cc(=O)n2c1 [AZD-6482]
% of control [1]: 41%

% of inhibition [2]: 2.77%
% of inhibition [3]: 85.9%
SMILES: CC[C@@H]1[C@H](F)C(=O)N[C@@H]1COc1nccc2cc(C(N)=O)c(OC)cc12 [ZIMLOVISERTIB]

SMILES: Cc1cc(F)c(C(=O)Nc2cccc(-c3nncn3C(C)C)n2)cc1-n1cnc(C2CC2)c1
% of control [4]: 98%

SMILES: COCC(=O)NC/C=C/c1ccc2ncnc(Nc3ccc(Oc4ccc(C)nc4)c(C)c3)c2c1 [CP-724714]
% of control [5]: 100%

SMILES: Nc1cnc(N2CCc3cc(S(=O)(=O)Nc4c(F)cc(Cl)cc4F)cc(N4CCCC4=O)c32)nc1 [TP-020n]
% of control [6]: 88%

% of inhibition [7]: 33%
SMILES: Cc1ccc(-c2ccc3c(ccc4sc5c(c43)NC[C@@H](C)NC5=O)n2)cn1

% of control [8]: 1%
SMILES: CCc1ccccc1C(=O)Nc1n[nH]c2c(C)c(F)c(C3C(C#N)=C(C)N(C)C(C)=C3C#N)cc12 [BAY-3827]

SMILES: N#Cc1cccc(-c2c[nH]c3ncnc(N4CCOCC4)c23)c1
% of control [9]: 60%

Reference: ChEMBL document CHEMBL5465560, “Selectivity Literature for EUbOPEN Chemogenomic Library” (2024)
